Where two headings read alike, the source gives them in different places.
Columns and labels:
Type in all cases: biochemical
[1] = target: T1, Lck (Homo sapiens, UniProt P06239); test: Kinase inhibition assay (33P transfer), Lck; conditions: read-out: Lck-1
T1 construct: Kinases are expressed as either kinase domains or full length constructs; made in house
From the text: (§1) The inhibitor compounds described herein are screened in the following manner. Kinases suitable for use in the following protocol to determine kinase activity of the compounds described herein include, -but are not limited to: Lck, Lyn, Src, Fyn, Syk, Zap-70, Itk, Tec, Btk, EGFR, ErbB2, Kdr, Flt-1, Flt-3, Tek, c-Met, InsR, and AKT.
(§2) Kinases are expressed as either kinase domains or full length constructs fused to glutathione S-transferase (GST) or polyHistidine tagged fusion proteins in either E. colior Baculovirus-High Five expression systems. […] In some instances, kinases are co-expressed or mixed with purified or partially purified regulatory polypeptides prior to measurement of activity.
(§3) Briefly, The transfer of ^33PO4 from ATP to the synthetic substrates poly(Glu, Tyr) 4:1 or poly(Arg, Ser) 3:1 attached to the bioactive surface of microtiter plates serves as the basis to evaluate enzyme activity. After an incubation period, the amount of phosphate transferred is measured by first washing the plate with 0.5% phosphoric acid, adding liquid scintillant, and then counting in a liquid scintillation detector.

[2] = target: T2, Zap-70 (Homo sapiens, UniProt P43403); test: Kinase inhibition assay (33P transfer), Zap-70; conditions: read-out: Zap-1
T2 construct: Kinases are expressed as either kinase domains or full length constructs; made in house
T2 sequence (P43403 1-619): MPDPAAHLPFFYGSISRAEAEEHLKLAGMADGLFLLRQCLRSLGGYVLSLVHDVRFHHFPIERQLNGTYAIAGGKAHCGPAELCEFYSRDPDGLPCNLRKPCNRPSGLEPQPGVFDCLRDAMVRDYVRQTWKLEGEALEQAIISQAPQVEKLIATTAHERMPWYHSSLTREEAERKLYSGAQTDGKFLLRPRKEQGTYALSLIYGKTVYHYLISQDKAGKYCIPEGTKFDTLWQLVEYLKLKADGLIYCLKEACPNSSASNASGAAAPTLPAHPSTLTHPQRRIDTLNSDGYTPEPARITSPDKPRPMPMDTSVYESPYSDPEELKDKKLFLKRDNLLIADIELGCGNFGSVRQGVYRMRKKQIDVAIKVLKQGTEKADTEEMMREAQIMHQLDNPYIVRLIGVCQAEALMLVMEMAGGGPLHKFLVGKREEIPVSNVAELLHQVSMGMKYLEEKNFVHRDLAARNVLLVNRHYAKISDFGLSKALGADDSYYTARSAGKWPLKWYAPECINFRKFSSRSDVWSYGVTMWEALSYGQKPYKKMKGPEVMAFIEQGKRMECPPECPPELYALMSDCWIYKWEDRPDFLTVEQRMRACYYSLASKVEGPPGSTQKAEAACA
From the text: as §1, §2, §3

[3] = target: T3, Itk (Homo sapiens, UniProt Q08881); test: Kinase inhibition assay (33P transfer), Itk; conditions: read-out: Itk-1
T3 construct: Kinases are expressed as either kinase domains or full length constructs; made in house
T3 sequence (Q08881 1-620): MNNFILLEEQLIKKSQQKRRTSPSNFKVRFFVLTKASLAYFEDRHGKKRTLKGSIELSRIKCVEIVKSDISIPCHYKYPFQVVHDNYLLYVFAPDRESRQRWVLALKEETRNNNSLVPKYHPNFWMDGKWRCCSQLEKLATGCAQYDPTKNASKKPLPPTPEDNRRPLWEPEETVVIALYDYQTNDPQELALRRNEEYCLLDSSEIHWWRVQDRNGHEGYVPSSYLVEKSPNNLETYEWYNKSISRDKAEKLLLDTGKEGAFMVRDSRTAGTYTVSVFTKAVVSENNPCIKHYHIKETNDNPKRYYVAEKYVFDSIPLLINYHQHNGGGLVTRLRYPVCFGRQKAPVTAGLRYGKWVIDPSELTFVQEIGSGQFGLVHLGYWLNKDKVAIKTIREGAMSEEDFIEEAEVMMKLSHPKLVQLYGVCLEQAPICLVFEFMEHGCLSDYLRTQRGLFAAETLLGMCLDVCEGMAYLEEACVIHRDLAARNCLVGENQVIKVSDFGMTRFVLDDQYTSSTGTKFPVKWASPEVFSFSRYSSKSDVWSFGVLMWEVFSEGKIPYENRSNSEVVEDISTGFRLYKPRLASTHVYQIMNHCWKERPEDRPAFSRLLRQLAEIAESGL
From the text: as §1
(§4) Kinases are expressed as either kinase domains or full length constructs fused to glutathione S-transferase (GST) or polyHistidine tagged fusion proteins in either E. colior Baculovirus-High Five expression systems. They are purified to near homogeneity by affinity chromatography essentially as previously described (Lehr et al., 1996; Gish et al., 1995). In some instances, kinases are co-expressed or mixed with purified or partially purified regulatory polypeptides prior to measurement of activity.
as §3, with “Kinase activity and inhibition are measured essentially by established protocols (Braunwalder et al., 1996). Briefly,” for “Briefly,”, “detector. The IC50 is determined by the concentration of compound that causes a 50% reduction in the amount of […] incorporated onto the substrate bound to the plate.” for “detector.”

[4] = target: T4, EGFR (Homo sapiens, UniProt P00533); test: Kinase inhibition assay (33P transfer), EGFR; conditions: Table 2, kinase inhibition class; read-out: EGFR-1
T4 construct: Kinases are expressed as either kinase domains or full length constructs; made in house
From the text: as §1, §4
as §3, with “Kinase activity and inhibition are measured essentially by established protocols (Braunwalder et al., 1996). Briefly,” for “Briefly,”, “detector. The IC50 is determined by the concentration of compound that causes a 50% reduction in the amount of […] incorporated onto the substrate bound to the plate.” for “detector.”

[5] = target: T5, Kdr (Homo sapiens, UniProt P35968); test: Kinase inhibition assay (33P transfer), Kdr; conditions: read-out: KDR-1
T5 construct: Kinases are expressed as either kinase domains or full length constructs; made in house
From the text: as §1, §2, §3

[6] = target: T6, c-Met (Homo sapiens, UniProt P08581); test: Kinase inhibition assay (33P transfer), c-Met; conditions: Table 2, kinase inhibition class; read-out: Met-1
T6 construct: Kinases are expressed as either kinase domains or full length constructs; made in house
From the text: as §1, §4
as §3, with “Kinase activity and inhibition are measured essentially by established protocols (Braunwalder et al., 1996). Briefly,” for “Briefly,”, “detector. The IC50 is determined by the concentration of compound that causes a 50% reduction in the amount of […] incorporated onto the substrate bound to the plate.” for “detector.”

[7] = target: T7, AKT (Homo sapiens, UniProt Q9Y243); test: Kinase inhibition assay (33P transfer), AKT; conditions: Table 2, kinase inhibition class; read-out: AKT3-1
T7 construct: Kinases are expressed as either kinase domains or full length constructs; made in house
From the text: as §1, §2, §3

T7 sequence (Q9Y243 whole entry, the tested form may be a part): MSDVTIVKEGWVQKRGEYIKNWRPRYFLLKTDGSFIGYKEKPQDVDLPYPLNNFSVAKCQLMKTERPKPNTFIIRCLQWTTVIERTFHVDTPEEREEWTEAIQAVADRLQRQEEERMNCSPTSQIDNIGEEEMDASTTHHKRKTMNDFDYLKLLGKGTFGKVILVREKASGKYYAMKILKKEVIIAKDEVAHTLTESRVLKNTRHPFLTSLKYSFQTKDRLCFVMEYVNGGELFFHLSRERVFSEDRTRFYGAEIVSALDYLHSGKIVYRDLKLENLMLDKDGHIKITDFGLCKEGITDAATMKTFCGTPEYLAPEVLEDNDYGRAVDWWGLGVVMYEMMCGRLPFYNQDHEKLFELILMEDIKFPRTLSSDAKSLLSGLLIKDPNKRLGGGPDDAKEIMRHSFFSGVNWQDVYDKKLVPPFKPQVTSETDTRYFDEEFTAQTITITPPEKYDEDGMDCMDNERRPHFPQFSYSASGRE
T1 sequence (P06239 whole entry, species assumed, the tested form may be a part): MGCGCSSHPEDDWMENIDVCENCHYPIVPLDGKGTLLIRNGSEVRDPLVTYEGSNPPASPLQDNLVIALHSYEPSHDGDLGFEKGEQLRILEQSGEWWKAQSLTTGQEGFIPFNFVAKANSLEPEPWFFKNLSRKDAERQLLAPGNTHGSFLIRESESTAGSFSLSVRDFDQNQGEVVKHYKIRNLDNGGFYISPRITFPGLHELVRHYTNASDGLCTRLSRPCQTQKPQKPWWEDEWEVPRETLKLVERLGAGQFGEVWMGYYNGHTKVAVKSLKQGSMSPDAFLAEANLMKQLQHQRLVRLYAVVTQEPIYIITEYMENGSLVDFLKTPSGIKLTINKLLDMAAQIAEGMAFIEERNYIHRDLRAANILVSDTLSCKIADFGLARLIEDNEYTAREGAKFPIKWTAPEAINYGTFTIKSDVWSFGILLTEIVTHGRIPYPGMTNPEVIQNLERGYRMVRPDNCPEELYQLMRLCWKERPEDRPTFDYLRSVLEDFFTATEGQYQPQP
T6 sequence (P08581 25-1390): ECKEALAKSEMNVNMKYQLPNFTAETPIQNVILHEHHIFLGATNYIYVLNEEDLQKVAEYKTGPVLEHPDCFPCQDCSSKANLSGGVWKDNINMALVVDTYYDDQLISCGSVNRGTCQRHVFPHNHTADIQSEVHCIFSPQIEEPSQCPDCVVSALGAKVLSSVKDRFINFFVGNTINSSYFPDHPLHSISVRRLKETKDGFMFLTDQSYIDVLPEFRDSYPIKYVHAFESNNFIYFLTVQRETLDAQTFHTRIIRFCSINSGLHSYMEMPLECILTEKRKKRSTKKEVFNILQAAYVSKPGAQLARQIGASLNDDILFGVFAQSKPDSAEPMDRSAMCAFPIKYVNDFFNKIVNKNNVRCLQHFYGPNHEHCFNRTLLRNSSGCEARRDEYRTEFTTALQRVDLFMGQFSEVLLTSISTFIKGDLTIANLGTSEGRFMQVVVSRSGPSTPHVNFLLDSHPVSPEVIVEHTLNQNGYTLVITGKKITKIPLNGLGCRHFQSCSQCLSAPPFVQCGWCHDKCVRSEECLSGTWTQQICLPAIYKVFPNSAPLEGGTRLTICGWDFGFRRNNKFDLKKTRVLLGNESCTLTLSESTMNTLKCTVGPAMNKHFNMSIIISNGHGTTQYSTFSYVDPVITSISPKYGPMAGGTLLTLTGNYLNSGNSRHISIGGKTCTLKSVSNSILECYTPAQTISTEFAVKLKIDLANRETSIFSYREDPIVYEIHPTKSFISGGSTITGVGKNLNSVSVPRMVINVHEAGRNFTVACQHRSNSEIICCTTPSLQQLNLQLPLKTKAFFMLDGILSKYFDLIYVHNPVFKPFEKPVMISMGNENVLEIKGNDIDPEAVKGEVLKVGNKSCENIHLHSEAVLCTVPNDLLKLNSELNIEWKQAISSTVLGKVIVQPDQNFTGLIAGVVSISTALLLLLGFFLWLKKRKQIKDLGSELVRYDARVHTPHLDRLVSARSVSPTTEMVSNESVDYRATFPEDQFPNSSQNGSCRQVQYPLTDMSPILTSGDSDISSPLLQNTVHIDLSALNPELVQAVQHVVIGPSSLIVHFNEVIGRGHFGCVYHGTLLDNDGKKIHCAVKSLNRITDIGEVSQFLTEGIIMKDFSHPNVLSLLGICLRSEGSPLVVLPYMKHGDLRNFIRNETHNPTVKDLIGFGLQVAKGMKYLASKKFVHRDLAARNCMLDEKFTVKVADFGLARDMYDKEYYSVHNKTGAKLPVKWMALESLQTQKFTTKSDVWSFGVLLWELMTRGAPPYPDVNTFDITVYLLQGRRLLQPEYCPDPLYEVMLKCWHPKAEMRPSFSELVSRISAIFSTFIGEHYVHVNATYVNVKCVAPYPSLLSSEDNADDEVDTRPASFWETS
T5 sequence (P35968 20-1356, species assumed): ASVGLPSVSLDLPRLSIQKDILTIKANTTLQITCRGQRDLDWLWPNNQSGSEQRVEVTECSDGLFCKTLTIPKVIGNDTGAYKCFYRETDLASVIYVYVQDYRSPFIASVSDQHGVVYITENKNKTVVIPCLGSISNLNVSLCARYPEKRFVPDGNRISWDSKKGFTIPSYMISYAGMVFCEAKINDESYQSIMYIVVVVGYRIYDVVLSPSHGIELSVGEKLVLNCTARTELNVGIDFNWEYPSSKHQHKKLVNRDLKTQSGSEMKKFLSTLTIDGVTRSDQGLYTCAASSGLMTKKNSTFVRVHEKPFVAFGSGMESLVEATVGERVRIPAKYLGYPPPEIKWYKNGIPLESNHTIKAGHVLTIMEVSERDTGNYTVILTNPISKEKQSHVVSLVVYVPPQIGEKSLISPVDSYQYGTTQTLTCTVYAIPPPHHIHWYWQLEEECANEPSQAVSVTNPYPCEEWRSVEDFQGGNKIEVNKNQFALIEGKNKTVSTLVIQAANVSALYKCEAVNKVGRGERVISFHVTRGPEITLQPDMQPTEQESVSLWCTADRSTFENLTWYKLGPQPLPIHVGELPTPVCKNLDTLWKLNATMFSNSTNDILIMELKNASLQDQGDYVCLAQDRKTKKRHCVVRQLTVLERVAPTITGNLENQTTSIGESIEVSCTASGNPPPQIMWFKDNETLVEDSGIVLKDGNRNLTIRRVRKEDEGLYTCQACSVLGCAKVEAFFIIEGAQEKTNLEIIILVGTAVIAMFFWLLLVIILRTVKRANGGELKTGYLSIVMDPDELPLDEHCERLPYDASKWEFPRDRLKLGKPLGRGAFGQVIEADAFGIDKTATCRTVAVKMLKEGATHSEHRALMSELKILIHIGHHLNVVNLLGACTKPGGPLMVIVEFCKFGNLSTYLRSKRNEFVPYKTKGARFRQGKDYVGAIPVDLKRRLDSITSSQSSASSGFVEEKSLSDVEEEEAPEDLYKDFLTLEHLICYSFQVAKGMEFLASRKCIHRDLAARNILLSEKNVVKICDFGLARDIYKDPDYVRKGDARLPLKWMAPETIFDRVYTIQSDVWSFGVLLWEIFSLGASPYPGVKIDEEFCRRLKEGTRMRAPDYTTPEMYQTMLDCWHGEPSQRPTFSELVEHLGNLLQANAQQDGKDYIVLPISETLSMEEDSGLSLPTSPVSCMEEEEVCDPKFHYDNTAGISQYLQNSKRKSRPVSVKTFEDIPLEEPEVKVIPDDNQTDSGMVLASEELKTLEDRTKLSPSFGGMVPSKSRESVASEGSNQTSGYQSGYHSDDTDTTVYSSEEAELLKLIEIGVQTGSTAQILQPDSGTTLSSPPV
T4 sequence (P00533 25-1210, species assumed): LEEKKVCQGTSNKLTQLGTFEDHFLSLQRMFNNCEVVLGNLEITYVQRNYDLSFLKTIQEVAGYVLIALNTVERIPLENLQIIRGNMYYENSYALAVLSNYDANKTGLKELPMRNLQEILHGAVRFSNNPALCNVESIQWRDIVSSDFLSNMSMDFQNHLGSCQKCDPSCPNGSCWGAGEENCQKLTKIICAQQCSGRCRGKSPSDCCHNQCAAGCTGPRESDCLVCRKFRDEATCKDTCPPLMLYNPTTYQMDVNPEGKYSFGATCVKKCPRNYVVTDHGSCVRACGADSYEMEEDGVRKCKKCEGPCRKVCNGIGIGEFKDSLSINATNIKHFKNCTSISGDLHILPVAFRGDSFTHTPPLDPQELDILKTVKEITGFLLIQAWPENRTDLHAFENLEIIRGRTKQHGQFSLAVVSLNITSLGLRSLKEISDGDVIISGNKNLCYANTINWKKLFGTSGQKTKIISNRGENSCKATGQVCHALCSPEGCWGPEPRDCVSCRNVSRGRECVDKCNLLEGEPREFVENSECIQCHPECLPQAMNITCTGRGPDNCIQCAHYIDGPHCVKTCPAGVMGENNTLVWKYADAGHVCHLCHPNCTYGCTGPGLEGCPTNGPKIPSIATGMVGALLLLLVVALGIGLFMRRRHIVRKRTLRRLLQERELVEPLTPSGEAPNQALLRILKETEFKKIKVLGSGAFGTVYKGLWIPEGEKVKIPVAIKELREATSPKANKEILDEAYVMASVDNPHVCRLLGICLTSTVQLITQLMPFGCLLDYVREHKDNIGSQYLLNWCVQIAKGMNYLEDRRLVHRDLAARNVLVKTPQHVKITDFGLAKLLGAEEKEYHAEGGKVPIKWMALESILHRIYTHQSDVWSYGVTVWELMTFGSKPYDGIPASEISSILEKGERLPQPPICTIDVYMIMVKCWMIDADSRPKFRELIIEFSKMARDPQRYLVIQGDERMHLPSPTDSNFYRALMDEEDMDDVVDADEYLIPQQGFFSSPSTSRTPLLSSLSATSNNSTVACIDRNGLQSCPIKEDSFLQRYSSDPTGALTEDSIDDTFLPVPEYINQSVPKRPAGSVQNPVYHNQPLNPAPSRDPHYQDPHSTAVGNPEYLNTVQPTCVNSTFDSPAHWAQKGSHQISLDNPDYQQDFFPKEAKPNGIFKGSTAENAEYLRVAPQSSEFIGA

IC50 ([1]; Table 3)	IC50 ([2]; Table 3)	IC50 ([3]; Table 3)	IC50 [4]	IC50 ([5]; Table 3)	IC50 [6]	IC50 [7]	IC50 [1]	IC50 [2]	IC50 [3]	IC50 [5]	SMILES
0.923 to 5.54 µM	> 10.4 µM	> 10.4 µM	> 10.4 µM	0.923 to 5.54 µM	5.54 to 8.08 µM	> 10.4 µM	–	–	–	–	O=C(Nc1ccc(Nc2ncnc(-n3c(=O)[nH]c4ccccc43)n2)cc1)O[C@@H]1CCOC1 [Compound 454]
–	–	–	> 12.7 µM	–	> 12.7 µM	> 12.7 µM	> 12.7 µM	> 12.7 µM	> 12.7 µM	> 12.7 µM	O=c1[nH]c2ccccc2n1-c1ncnc(Nc2cccc3ccccc23)n1 [Compound 683]
–	–	–	> 9.12 µM	–	> 9.12 µM	> 9.12 µM	0.81 to 4.86 µM	> 9.12 µM	> 9.12 µM	< 0.81 µM	COc1cc(Nc2ncnc(-n3c(=O)[nH]c4ccccc43)n2)cc(OCCN2CCOCC2)c1OC [Compound 1039]
> 13 µM	> 13 µM	> 13 µM	> 13 µM	1.15 to 6.91 µM	> 13 µM	> 13 µM	–	–	–	–	NC(=O)c1cccc(Nc2ncnc(-n3c(=O)[nH]c4ccccc43)n2)c1 [Compound 420]

Second part, the compound before the results:

SMILES	IC50 ([1]; Table 3)	IC50 ([2]; Table 3)	IC50 ([3]; Table 3)	IC50 [4]	IC50 ([5]; Table 3)	IC50 [6]	IC50 [7]	IC50 [1]	IC50 [2]	IC50 [3]	IC50 [5]
O=c1[nH]c2ccccc2n1-c1ncnc(Nc2cccc(OC(F)(F)F)c2)n1 [Compound 461]	> 11.6 µM	> 11.6 µM	> 11.6 µM	> 11.6 µM	> 11.6 µM	> 11.6 µM	> 11.6 µM	–	–	–	–
CN(C)c1ccc(Nc2ncnc(-n3c(N)nc4ccccc43)n2)cc1 [Compound 527]	–	–	–	6.93 to 10.1 µM	–	1.15 to 6.93 µM	> 13 µM	1.15 to 6.93 µM	> 13 µM	1.15 to 6.93 µM	< 1.15 µM
O=c1[nH]c2ccccc2n1-c1ncnc(Nc2ccc3[nH]ncc3c2)n1 [Compound 685]	–	–	–	> 13.1 µM	–	> 13.1 µM	> 13.1 µM	> 13.1 µM	> 13.1 µM	> 13.1 µM	> 13.1 µM
NC(=O)c1ccc(Nc2ncnc(-n3c(=O)[nH]c4ccccc43)n2)cc1 [Compound 419]	> 13 µM	> 13 µM	> 13 µM	> 13 µM	1.15 to 6.91 µM	> 13 µM	> 13 µM	–	–	–	–
O=c1[nH]c2ccccc2n1-c1ncnc(Nc2ccccc2)n1 [Compound 482]	–	–	–	> 14.8 µM	–	> 14.8 µM	> 14.8 µM	> 14.8 µM	> 14.8 µM	> 14.8 µM	< 1.31 µM
CC(=O)NS(=O)(=O)c1ccc(Nc2ncnc(-n3c(=O)[nH]c4ccccc43)n2)cc1 [Compound 452]	> 10.6 µM	> 10.6 µM	> 10.6 µM	> 10.6 µM	0.94 to 5.64 µM	> 10.6 µM	> 10.6 µM	–	–	–	–
CNc1ncnc(Nc2cc(OC)c(OC)c(OC)c2)n1 [Compound 409]	12 to 15.4 µM	> 15.4 µM	> 15.4 µM	> 15.4 µM	> 15.4 µM	> 15.4 µM	> 15.4 µM	–	–	–	–
